Assay results: patent US20260216147A1, “USE OF A THIENOPYRIDONE DERIVATIVE IN THE TREATMENT OF DIABETIC NEPHROPATHY” (POXEL, priority 2020, published 2026)

Legend:
[1] = background statement; cited from earlier work
obese ZSF1 rats [2] = assay: Glomerular filtration rate (FITC-sinistrin, transcutaneous) in obese ZSF1 rats; format: in vivo, rat; details: 150 mg/kg oral gavage twice a day, 90 days (24 weeks of age), vs untreated ZSF1 rats
Description: (§1) ZSF1 rat is a Leptin-resistant, obese, hypertensive Zucker diabetic fatty/Spontaneously hypertensive heart failure F1 hybrid (ZSF1) rat. The obese ZSF1 rat is described as a relevant pre-clinical model for the study of renal function decline to end stage renal disease in the setting of type 2 diabetes (Dower K et al., PLOS ONE 2017; 12 (7): e0181861).
(§2) Obese ZSF1 rats and lean ZSF1 (Lean) were 12-week-old at the time of treatment initiation.
(§3) The following groups were constituted: • Lean rats (untreated; n=5-8) • ZSF1 rats (untreated; n=9-12) • ZSF1 treated with PXL770 (n=8-12).
(§4) The compound of Example 2, also known as PXL770 was administered by oral gavage at the dose of 150 mg/kg twice a day for 8 days (13 weeks of age) or 90 days (24-week old of age).
(§5) The PXL770 suspension was prepared at the concentrations used in the study (150 mg/kg) in the vehicle, i.e. carboxymethylcellulose 0.5%/Tween 80 (98/2).
At D8 and D90, glomerular filtration rate was determined with the fluorescent glomerular filtration rate tracer fluorescein isothiocyanate (FITC)-sinistrin using the transcutaneous glomerular filtration rate system (NIC-Kidney; Mannheim Pharma and Diagnostics GmbH, Mannheim, Germany) (Schock-Kusch D. et al., PLOS One 2013; 8, e71519). […]

obese ZSF1 rats [3] = assay: Albuminuria in 15 h overnight urine of obese ZSF1 rats; format: in vivo, rat; details: 150 mg/kg oral gavage twice a day
Description: as §1, §2, §3, §4, §5
(§6) Randomly selected animals of each group (n=8-12) were placed in separate metabolic cages in order to collect 15 h over-night urine samples at D8 and D90. Albuminuria was determined as indicator of renal dysfunction using IDEXX Vetlab analyzer. Glycosuria was determined using IDEXX Vetlab analyzer. […]

obese ZSF1 rats [4] = assay: Glycosuria in 15 h overnight urine of obese ZSF1 rats; format: in vivo, rat; details: 150 mg/kg oral gavage twice a day
Description: as §1, §2, §3, §4, §5, §6

obese ZSF1 rats [5] = assay: Urine volume (15 h overnight, metabolic cages) of obese ZSF1 rats; format: in vivo, rat; details: 150 mg/kg oral gavage twice a day, 90 days, vs untreated ZSF1 rats
Description: as §1, §2, §3, §4, §5, §6

[6] = background statement; cited from earlier work; remark: listed apart in the source
[7] = system: preclinical model of diabetic nephropathy; details: K. O. Cameron et al., J. Med. Chem. 2016; cited from earlier work

In the case of MK-8722, the Cardiac side effects [1] is given as “known to trigger cardiac side effects”.

For `O=c1[nH]c2sc(Cl)c(-c3ccc4c(c3O)CCCC4)c2c([O-])c1-c1ccccc1.[K+]` [PXL770, monohydrate potassium salt of 2-chloro-4-hydroxy-3-(5-hydroxytetralin-6-yl)-5-phenyl-7H-thieno[2,3-b]pyridin-6-one], the “Glomerular filtration rate (GFR)” value (obese ZSF1 rats [2]) was “significantly prevented the decrease in GFR”, the “Albuminuria (urine albumin level)” value (obese ZSF1 rats [3]; 8 days (13 weeks of age), vs age-matched untreated ZSF1 rats) was “a decrease in albuminuria was observed” and the “Albuminuria (urine albumin level)” value (obese ZSF1 rats [3]; 90 days (24 weeks of age), vs untreated ZSF1 rats) was “significantly reduced”. For the same compound, the “Glycosuria (urine glucose level)” value (obese ZSF1 rats [4]; 8 days) was “reduced glycosuria”, the “Glycosuria (urine glucose level)” value (obese ZSF1 rats [4]; 90 days) was “reduced glycosuria” and the Urine volume (obese ZSF1 rats [5]) was “decreased significantly urine volume”.

For `N#Cc1c(O)c2c(-c3ccc(-c4ccccc4O)cc3)csc2[nH]c1=O` [Compound A-799662], the Oral bioavailability [6] is given as “poor oral bioavailability”.

In the case of `O=C(O)c1c[nH]c2cc(Cl)c(-c3ccc(C4(O)CCC4)cc3)cc12` [PF-06409577], the “Efficacy in a preclinical model of diabetic nephropathy” value [7] is listed as “showed efficacy”.
